Measurements reported in US20200163913A1 (Shanghai Huali Biomedical Co., Ltd., priority 2017, published 2020).
Where two headings read alike, the source gives them in different places.

Experiments:
[1] = system: human liver cancer cell HepG2; assay: CCK-8 cell proliferation inhibition, HepG2; assay type: cell-based; conditions: Homo sapiens, read-out: IC50 HepG2
Method: (§1) Take more than 90% of live cells for experiments. Cell proliferation inhibition test uses EnoGeneCell™ Counting Kit-8 (CCK-8) cell viability detection kit. Cells are digested and counted to make a cell suspension with a concentration of 1×10^5 cells/mL, 100 μL of cell suspension (1×10^4 cells per well) was added to each well of a 96-well plate; Incubate in a 5% CO2 incubator for 24 hours; add 100 μL of the corresponding drug-containing culture medium to each well, and set a negative control group, a vehicle control group, and a positive control group, with 5 replicates in each group; place the 96-well plate at 37° C.

[2] = system: human gastric cancer cell MKN45; assay: CCK-8 cell proliferation inhibition, MKN45; assay type: cell-based; conditions: MKN-45, 72 h, read-out: IC50 MKN45
Method: as §1

[3] = system: human lung cancer cell A549; assay: CCK-8 cell proliferation inhibition, A549; assay type: cell-based; conditions: read-out: IC50 A549
Method: as §1

[4] = system: human cervical cancer cell HeLa; assay: CCK-8 cell proliferation inhibition, HeLa; assay type: cell-based; conditions: Homo sapiens, HeLa, 72 h, read-out: IC50 Hela
Method: as §1

[5] = system: human gastric cancer cell MGC-803; assay: CCK-8 cell proliferation inhibition, MGC-803; assay type: cell-based; conditions: MGC-803, 72 h, read-out: IC50 MGC803
Method: as §1

[6] = system: human colon cancer cell HCT-116; assay: CCK-8 cell proliferation inhibition, HCT-116; assay type: cell-based; conditions: Homo sapiens, HCT-116, 72 h, read-out: IC50 HTC116
Method: as §1

Arylsulfatase = Arylsulfatase activity assay in vitro; assay type: biochemical
Method: Weigh an appropriate amount of the test compound and dissolve it in dimethyl sulfoxide. Dilute it with Tris-HCl buffer for 2, 5, 10, 20, 50, 100, 200, 500, 1000, 2000, 5000, and 10,000 times. Add another dilution gradient to the sample. Arylsulfatase and potassium p-nitrophenyl sulfate are directly dissolved in Tris-HCl buffer. 40 μL of the test compound, 50 μL of arylsulfatase and 50 μL of potassium p-nitrobenzene sulfate were added to a 96-well plate for reaction. A blank control without enzymes and a standard control without test compounds are used. The volume is made up with Tris-HCl buffer. 405 nm detection in the microplate reader, each sample is measured for 40 times, and the interval is 30 s. The representative time node within the time period with good linearity of the absorbance value are selected for data analysis. The measured absorbance value are subtracted from the background value of the blank control and the initial value when the reaction time are 0. For comparison, calculate the inhibition rate at different concentrations, and use the built-in forecast function of excel to predict the IC50 value.

Tubulin = Tubulin polymerization activity test; assay type: biochemical; conditions: tubulin 4.8 mg/ml, 37° C., 340 nm; read-out: IC50 (Table 3, tubulin polymerization test)
Method: Tubulin (4.8 mg/ml) protein was mixed with the test compound in a PEM buffer (100 mM PIPES, 1 mM MgCl2 and 1 mM EGTA) containing 1 mM GTP and 5% glycerol. A SPECTRA MAX 190 (Molecular Device) spectrophotometer was used to monitor the microtubule polymerization at 37° C. by light scattering at 340 nm, and the microtubule polymerization was calculated from the absorbance value. Each sample was tested three times at ten different concentrations.

[7] = p-nitrophenyl sulfate substrate, 405 nm, read-out: IC50 sulfatase

IC50 ([1]; HepG2, 72 h, CCK-8, 72 h) | IC50 ([2]; CCK-8, 72 h) | IC50 ([3]; A549, CCK-8, 72 h) | IC50 ([4]; CCK-8, 72 h) | IC50 ([5]; CCK-8, 72 h) | IC50 ([6]; CCK-8, 72 h) | melting point | IC50 (Arylsulfatase; read-out: sulfatase inhibitory activity) | Compound | IC50 ([1]; HepG2, running text) | IC50 (Arylsulfatase; [7]) | IC50 (Tubulin) | IC50 ([1]; HepG2, 72 h) | IC50 [2] | IC50 ([3]; A549, 72 h) | IC50 [4] | IC50 [5] | IC50 [6]
3.65 µM | 7.67 µM | 1.6 µM | 2.93 µM | 3.59 µM | 10.2 µM | 122.3 to 126.7 °C | – | CCOc1ccc(CCc2cc(OC)c(OC)c(OC)c2)cc1OS(N)(=O)=O [Compound A2-3, 3,4,5-trimethoxy-4′-ethoxy-3′-sulfamate diphenylethane] | – | – | – | – | – | – | – | – | –
15.9 µM | 23.3 µM | – | 35.6 µM | 71.4 µM | 26.5 µM | 142.5 to 145.8 °C | – | COc1cc(CCc2ccc(OC(F)F)c(OS(N)(=O)=O)c2)cc(OC)c1OC [Compound A3-3] | – | – | 86.2 µM | – | – | – | – | – | –
9.36 µM | 8.53 µM | 11 µM | 16.3 µM | 15.3 µM | 9.5 µM | 107.1 to 110.6 °C | < 0.5 µM | COc1cc(/C=C\c2cccc(OS(N)(=O)=O)c2)cc(OC)c1OC [Compound A4-1, (Z)-3,4,5-trimethoxy-3′-sulfamate stilbene] | – | 0.47 µM | – | – | – | – | – | – | –
11.8 µM | 27 µM | 21.5 µM | 19 µM | 25 µM | 40.3 µM | 136.3 to 139.7 °C | – | COc1cc(/C=C/c2cccc(OS(N)(=O)=O)c2)cc(OC)c1OC [Compound A4-2, (E)-3,4,5-trimethoxy-3′-sulfamate stilbene] | – | – | – | – | – | – | – | – | –
12 µM | 17.6 µM | 25.8 µM | 27.1 µM | 25.7 µM | 52.5 µM | 108.4 to 120.8 °C | – | COc1cc(CCc2cccc(OS(N)(=O)=O)c2)cc(OC)c1OC [Compound A4-3, 3,4,5-trimethoxy-3′-sulfamate diphenylethane] | – | – | – | – | – | – | – | – | –
0.752 µM | 0.5 µM | 0.299 µM | 0.272 µM | 9.56 µM | 3.29 µM | 143.3 to 146.7 °C | – | COc1ccc(/C=C\c2cc(OC)c(OC)c(OC)c2)cc1NS(N)(=O)=O [Compound A5-1, (Z)-3,4,5-trimethoxy-4′-methoxy-3′-aminosulfamate stilbene] | – | – | – | – | – | – | – | – | –
7.53 µM | 6.19 µM | 7.42 µM | 0.38 µM | 18.9 µM | 8.64 µM | 157.9 to 161.1 °C | – | COc1ccc(/C=C/c2cc(OC)c(OC)c(OC)c2)cc1NS(N)(=O)=O [Compound A5-2, (E)-3,4,5-trimethoxy-4′-methoxy-3′-aminosulfamate stilbene] | – | – | – | – | – | – | – | – | –
8.1 µM | 8.21 µM | 12 µM | 2.93 µM | 73.9 µM | 30.6 µM | 122.5 to 126.5 °C | – | COc1ccc(CCc2cc(OC)c(OC)c(OC)c2)cc1NS(N)(=O)=O [Compound A5-3, 3,4,5-trimethoxy-4′-methoxy-3′-aminosulfamate diphenylethane] | – | – | – | – | – | – | – | – | –

Further lines, the compound ahead of its results:

Compound | IC50 ([1]; HepG2, 72 h, CCK-8, 72 h) | IC50 ([2]; CCK-8, 72 h) | IC50 ([3]; A549, CCK-8, 72 h) | IC50 ([4]; CCK-8, 72 h) | IC50 ([5]; CCK-8, 72 h) | IC50 ([6]; CCK-8, 72 h) | melting point | IC50 (Arylsulfatase; read-out: sulfatase inhibitory activity) | IC50 ([1]; HepG2, running text) | IC50 (Arylsulfatase; [7]) | IC50 (Tubulin) | IC50 ([1]; HepG2, 72 h) | IC50 [2] | IC50 ([3]; A549, 72 h) | IC50 [4] | IC50 [5] | IC50 [6]
COc1ccc(/C=C\c2cc(OC)c(OC)c(OC)c2)cc1O [CA-4, (Z)-3,4,5-trimethoxy-3′-hydroxy-4′-methoxystilbene, reference compound] | 16 µM | 3.44 µM | 5.99 µM | 11.3 µM | 1.76 µM | 9 µM | – | – | – | – | – | – | – | – | – | – | –
COc1ccc(/C=C/c2cc(OC)c(OC)c(OC)c2)cc1OS(N)(=O)=O [Compound A1-2, (E)-3,4,5-trimethoxy-4′-methoxy-3′-sulfamate stilbene] | 0.87 µM | 10.5 µM | 11.4 µM | 4.5 µM | 2.98 µM | 1.57 µM | – | – | < 1 µM | 12.9 µM | 55.7 µM | – | – | – | – | – | –
COc1ccc(CCc2cc(OC)c(OC)c(OC)c2)cc1OS(N)(=O)=O [Compound A1-3, 3,4,5-trimethoxy-4′-methoxy-3′-sulfamate diphenylethane] | 1.14 µM | 11.9 µM | 15.8 µM | 9.04 µM | 3.61 µM | 3.08 µM | – | – | – | – | 72.6 µM | – | – | – | – | – | –
CNS(=O)(=O)Oc1cc(/C=C\c2cc(OC)c(OC)c(OC)c2)ccc1OC [Compound A1-4, (Z)-3,4,5-trimethoxy-4′-methoxy-3′-N-methylsulfamate stilbene] | – | – | – | – | – | – | 118.4 to 121.6 °C | – | – | – | – | 0.263 µM | 0.369 µM | 0.269 µM | 0.317 µM | 5.05 µM | 16.8 µM
COc1ccc(/C=C\c2cc(OC)c(OC)c(OC)c2)cc1OS(=O)(=O)N(C)C [Compound A1-5, (Z)-3,4,5-trimethoxy-4′-methoxy-3′-N,N-dimethylsulfamate stilbene] | – | – | – | – | – | – | 102.7 to 105.6 °C | – | – | – | 3.1 µM | 9.96 µM | 7.14 µM | 0.987 µM | 14.3 µM | 8.95 µM | 0.366 µM
CCOc1ccc(/C=C/c2cc(OC)c(OC)c(OC)c2)cc1OS(N)(=O)=O [Compound A2-2, (E)-3,4,5-trimethoxy-4′-ethoxy-3′-sulfamate stilbene] | 2.63 µM | 8.05 µM | 4.86 µM | 5.64 µM | 7.63 µM | 9.12 µM | – | – | – | – | – | – | – | – | – | – | –
COc1cc(/C=C\c2ccc(OC(F)F)c(OS(N)(=O)=O)c2)cc(OC)c1OC [Compound A3-1, (Z)-3,4,5-trimethoxy-4′-difluoromethoxy-3′-sulfamate stilbene] | – | – | – | – | – | – | 161.6 to 162.9 °C | – | – | 4.64 µM | 1.8 µM | 4.8 µM | 9 µM | 5.21 µM | 7.82 µM | 12.5 µM | 9.11 µM
COc1cc(/C=C/c2ccc(OC(F)F)c(OS(N)(=O)=O)c2)cc(OC)c1OC [Compound A3-2, (E)-3,4,5-trimethoxy-4′-difluoromethoxy-3′-sulfamate stilbene] | – | – | – | – | – | – | 145.5 to 148.6 °C | – | – | – | 12.5 µM | 5.54 µM | 9.24 µM | 28.2 µM | 8.42 µM | 13.8 µM | 12.8 µM
C[C@]12CC[C@@H]3c4ccc(OS(N)(=O)=O)cc4CC[C@H]3[C@@H]1CCC2=O [EMATE, 3-(sulfamoyloxy)-estr-1,3,5 (10)-triene-17-one, reference compound] | – | – | – | – | – | – | – | – | – | 5.01 µM | 25.9 µM | – | – | – | – | – | –
COc1ccc(CCc2cc(OC)c(OC)c(OC)c2)cc1O [Erianin, 3,4,5-trimethoxy-3′-hydroxy-4′-methoxydiphenylethane, reference compound] | 0.237 µM | 0.425 µM | 0.22 µM | 0.207 µM | 0.449 µM | 6.29 µM | – | – | – | – | – | – | – | – | – | – | –
